Test results published in patent US7759101B2, “Ginsenoside glycosidases hydrolyzing ginsenoside sugar moieties and uses thereof” (priority 2000, dated 2010).

Tested on: ginsenoside glycosidases from A. niger
Experiment: Hydrolysis of ginsenosides with crude ginsenoside glycosidases from A. niger, products measured by TLC
Assay type: biochemical, Aspergillus niger
Conditions: Rb1 0.5%
Description: Aspergillus niger FFCCDL-48 g was cultured in a medium containing 1% ginseng extracts and 3% wheat bran extracts at 30° C. for 54 hours. Cells were removed by centrifugation, after which (NH4)2SO4 powder was added to 2000 ml of the cell-free supernatant with stirring to 65% saturation. The solution was stored overnight at 4° C. and precipitated proteins were collected by centrifugation, resuspended in 80 ml of distilled water and dialyzed against 0.01M acetate buffer pH 5. Insolubles were removed by centrifugation, and the solution was adjusted to 200 ml with 0.01 M acetate buffer pH 5. The crude enzyme solution may be used to hydrolyze ginsenosides or to purify the enzymes.
100 mg each of ginsenosides Rb1, Rb2, Rc and Rd and 10 mg of ginsenoside Rg3 were dissolved in separate tubes containing 10 ml of 0.01M acetate buffer pH 5. 10 ml of the crude enzyme solution obtained in 1.1 was added to each tube and allowed to react at 30° C. for 18 hours. Then 10 ml of n-butanol was added to stop the reactions. The products were measured by thin layer chromatography (TLC) (Silica gel 60-F254, Merck; chloroform:methanol:water 70:30:5).
Experiments were carried out to explore the effects of temperature, pH, metal ions and reaction time on the enzyme reaction, in order to further characterize the enzymes.
100 mg of ginsenoside Rb1 was used in a reaction under the conditions as described in 1.2 and the effect of temperature was shown in Table 2.

## CC(C)=CCC[C@](C)(O[C@@H]1O[C@H](CO[C@@H]2O[C@H](CO)[C@@H](O)[C@H](O)[C@H]2O)[C@@H](O)[C@H](O)[C@H]1O)[C@H]1CC[C@]2(C)[C@@H]1[C@H](O)C[C@@H]1[C@@]3(C)CC[C@H](O[C@@H]4O[C@H](CO)[C@@H](O)[C@H](O)[C@H]4O[C@@H]4O[C@H](CO)[C@@H](O)[C@H](O)[C@H]4O)C(C)(C)[C@@H]3CC[C@]12C [Rb1, ginsenoside Rb1]
20° C., pH 5.0, 18 hours
  Percentage of C—K in the reaction product: 10%
  Percentage of F2 in the reaction product: 15%
  Percentage of Rb1 in the reaction product: 25%
  Percentage of Rd in the reaction product: 50%
30° C., pH 5.0, 18 hours
  Percentage of C—K in the reaction product: 16%
  Percentage of F2 in the reaction product: 63%
  Percentage of Rb1 in the reaction product: 1%
  Percentage of Rd in the reaction product: 10%
  Percentage of Rh2 in the reaction product: 5%
  Percentage of aglycone in the reaction product: 5%
40° C., pH 5.0, 18 hours
  Percentage of C—K in the reaction product: 34%
  Percentage of F2 in the reaction product: 50%
  Percentage of Rd in the reaction product: 5%
  Percentage of Rh2 in the reaction product: 6%
  Percentage of aglycone in the reaction product: 5%
50° C., pH 5.0, 18 hours
  Percentage of C—K in the reaction product: 42%
  Percentage of F2 in the reaction product: 40%
  Percentage of Rd in the reaction product: 5%
  Percentage of Rh2 in the reaction product: 4%
  Percentage of aglycone in the reaction product: 4%
60° C., pH 5.0, 18 hours
  Percentage of C—K in the reaction product: 6%
  Percentage of F2 in the reaction product: 10%
  Percentage of Rb1 in the reaction product: 30%
  Percentage of Rd in the reaction product: 50%
  Percentage of Rh2 in the reaction product: 2%
  Percentage of aglycone in the reaction product: 2%
70° C., pH 5.0, 18 hours
  Percentage of Rb1 in the reaction product: 82%
  Percentage of Rd in the reaction product: 18%
Ca^++ 50 mM, pH 5.0, 30°C.
  Percentage of C—K in the reaction product: 20%
  Percentage of F2 in the reaction product: 65%
  Percentage of Rd in the reaction product: 4%
  Percentage of Rh2 in the reaction product: 7%
  Percentage of aglycone in the reaction product: 4%
Ca^++ 100 mM, pH 5.0, 30°C.
  Percentage of C—K in the reaction product: 21%
  Percentage of F2 in the reaction product: 67%
  Percentage of Rh2 in the reaction product: 7%
  Percentage of aglycone in the reaction product: 5%
Cu^++ 100 mM, pH 5.0, 30°C.
  Percentage of C—K in the reaction product: 10%
  Percentage of F2 in the reaction product: 30%
  Percentage of Rb1 in the reaction product: 30%
  Percentage of Rd in the reaction product: 30%
Mg^++ 50 mM, pH 5.0, 30°C.
  Percentage of C—K in the reaction product: 17%
  Percentage of F2 in the reaction product: 65%
  Percentage of Rd in the reaction product: 6%
  Percentage of Rh2 in the reaction product: 7%
  Percentage of aglycone in the reaction product: 5%
Mg^++ 100 mM, pH 5.0, 30°C.
  Percentage of C—K in the reaction product: 21%
  Percentage of F2 in the reaction product: 67%
  Percentage of Rh2 in the reaction product: 8%
  Percentage of aglycone in the reaction product: 4%
No ion, pH 5.0, 30°C.
  Percentage of C—K in the reaction product: 16%
  Percentage of F2 in the reaction product: 63%
  Percentage of Rd in the reaction product: 10%
  Percentage of Rh2 in the reaction product: 5%
  Percentage of aglycone in the reaction product: 2%
Pb^++ 100 mM, pH 5.0, 30°C.
  Percentage of C—K in the reaction product: 1%
  Percentage of F2 in the reaction product: 9%
  Percentage of Rb1 in the reaction product: 70%
  Percentage of Rd in the reaction product: 20%
pH 3.0, 30° C., 18 hours
  Percentage of C—K in the reaction product: 40%
  Percentage of F2 in the reaction product: 30%
  Percentage of Rb1 in the reaction product: 2%
  Percentage of Rd in the reaction product: 20%
  Percentage of Rh2 in the reaction product: 8%
  Percentage of aglycone in the reaction product: 10%
pH 4.0, 30° C., 18 hours
  Percentage of C—K in the reaction product: 39%
  Percentage of F2 in the reaction product: 43%
  Percentage of Rb1 in the reaction product: 1%
  Percentage of Rd in the reaction product: 10%
